What was measured:
[1] = Pharmacokinetics, brain penetration and tolerability in mice; type: in vivo, mouse
Experimental: FIG. 40. SERK-F6 is tolerated, reaches biologically relevant concentrations, and crosses the blood-brain barrier in vivo. a, Serum concentrations of SERK-F6 after indicated doses, route of administration, and time. Concentration was determined via LC/MS/MS analysis. […] AUC: Area Under the Curve, Cmax: maximum concentration, t1/2: half-life. c,d, Mice (CD-1) were treated with the indicated doses and times, then sacrificed and their serum and brains collected. Concentrations were determined via LC/MS/MS analysis. […] Treatment arms: vehicle daily (n=3), vehicle weekly (n=3), fulv. weekly (5 mg/mouse, s.c., n=6), SERK-F6 daily (10 or 40 mg/kg p.o.). Vehicle arms were combined. g, Mass of tumors harvested from mice. h, observed murine weight during this MCF-7 study (n=6). i,j, Tumor measurements for MCF-7 bilateral orthotopic model (n=4-5).
The pharmacokinetics of SERK-F6 was measured in mice (FIG. 40A-B).

[2] = system: MYS and MDG cells (MCF-7 with Y537S or D538G ERα); assay: MYS-luc / MDG-luc orthotopic and metastatic tumor models; type: in vivo, mouse
Description: FIG. 41. […]
FIG. 43. SERK-F6-mediated eradication of MYS/MDG tumors is dependent on quantitative cell killing. a-b, MYS-luc. orthotopic tumors were established in NSG ovariectomized mice (no E2 pellet, ˜45 days to establish) and dosed daily as indicated (n=5-6). b, Treatment of MYS-luc. tumors were stopped after 21 daily doses of SERK-F6 and mice tumor burden was tracked via bioluminescence. […]

[3] = system: Y537S tumors (TYS cell line); assay: TYS-luc orthotopic tumor model, SERK-F6 i.p. and oral; type: in vivo, mouse
Description: FIG. 41. SERK-F6 eradicates mutant ERα primary and metastatic breast cancer. a-c, TYS-luc. orthotopic tumors were established in NSG ovariectomized mice (no E2 pellet, 60 days to establish) and dosed daily as indicated (n=5-6). b, representative examples of bioluminescence images of SERK-F6 treated mice (7 days). d,e, TDG-luc. orthotopic tumors were established in NSG ovariectomized mice (no E2 pellet, 120 days to establish) and dosed daily as indicated (n=4-5). e, Bioluminescence image of SERK-F6 treated mouse with TDG-luc. tumor burden after 7 days. f, MYS-luc. orthotopic tumors were established in NSG ovariectomized mice (no E2 pellet, 45 days to establish) and dosed daily as indicated (n=4-5). g, MDG-luc. orthotopic tumors were established in NSG ovariectomized mice (no E2 pellet, 45 days to establish) and dosed daily as indicated (n=4-5). h, Metastatic model with MDG-luc. cells injected into the tail-vein of NSG ovariectomized mice (no E2 pellet, 1.5 months to establish) and mice were dosed daily as indicated (n=4-5).
SERK-F6 treatment was again tolerated (FIG. 42E) at higher doses and enough to eradicate tumors (FIG. 42F).

[4] = system: MDA-MB-231 cells; assay: Cell death of MDA-MB-231 cells (annexin V-FITC / PI flow cytometry); type: cell-based, human; conditions: 24 hours
Experimental: FIG. 36. Discovery of SERK-F6 (also known as, C(−)-105, (−)-105, (R)-105, (−)-1, or (R)-1), a compound that kills ERα-positive cancer cells. a, Chemical structures of BHPI and racemic compound 1 (i.e. (±)-1), and their cytotoxic activity on T47D breast cancer cells after 24-hour incubations with concentrations as indicated in nM. Cells were stained with annexin V-FITC and PI dyes prior to analysis via flow cytometry. […] Cells were incubated with SERK-F6 or positive control, Raptinal, for 24 hours and then stained with annexin V-FITC and PI dyes and analyzed via flow cytometry. Error bars represent S.E.M of 3 independent replicates. c, IC50 values of SERK-F6 after 24-hour incubation against a panel of cancer cell lines grouped by their reported ERα status. Cell viability was measured by Alamar blue fluorescence and set relative to a vehicle control and a quantitative dead control treated with Raptinal. Error bars represent S.E.M of 3 independent experiments. d, Crystal violet staining of T47D cells after 24-hour incubations with compounds and concentrations as indicated. […] Cell number was determined by MTS.
Through a medicinal chemistry campaign, (±)-1 was discovered to show an unexpected cytotoxic phenotype (FIG. 36A). […] The dose dependent activity of SERK-F6 was determined against a panel of cancer cell lines (FIG. 36C and FIG. 37A) for ERα.

For `O=C1Nc2c(C(F)(F)F)cccc2C1(c1ccc(O)cc1)c1ccc(OC(F)(F)F)cc1` (single isomer, unassigned; (-)) [(−)-105, 3-(4-hydroxyphenyl)-3-(4-(trifluoromethoxy)phenyl)-7-(trifluoromethyl)indolin-2-one], the blood-brain barrier penetration [1] was “blood-brain barrier penetrant”, the tolerability in vivo [1] was “well-tolerated” and the “effect on metastatic tumor burden” value ([2]; metastatic model) was “eradicates metastatic tumor burden”. The “effect on MYS / MDG tumors” value ([2]; mouse, in vivo) was “Dramatic tumor regressions”, the “tumor regrowth at sub-therapeutic dose” value ([3]; 10 mg/kg oral) was “tumors did regrow” and the “tumor regrowth upon treatment cessation” value ([3]; after treatment cessation) was “tumors did not regrow”. For the same compound, the “effect on Y537S tumors” value ([3]; dose-dependent, i.p. and oral administration) was “eradicates Y537S tumors” and the “effects in ERα negative MDA-MB-231 cells” value [4] was “minimal effects”.

Reference: patent US12180159B2, “Activators of the unfolded protein response” (The Board of Trustees of the University of Illinois, priority 2018, dated 2024)
